Assay results: patent US20170197935A1, “INHIBITORS OF DNA GYRASE FOR THE TREATMENT OF BACTERIAL INFECTIONS” (Vitas Pharma Research Private Limited, priority 2012, published 2017)
Converted amounts (≈) assume the structure as drawn. Where two headings read alike, the source gives them in different places.

Columns and labels:
Assay type in all cases: cell-based
[1] = tested on: Methicillin resistant Staphylococcus aureus (ATCC 33591); experiment: MIC by microbroth dilution, MRSA ATCC 33591
Method: (§1) Shown below are the microbiological activities of representative compounds of Formula I of the invention. The compounds were tested by the microbroth dilution method (National committee for Clinical Laboratory Standards, 2011, M07-08) and the Minimum Inhibitory Concentration (MIC) was determined.
(§2) Analysis of microbiological activity of compounds shown below are the microbiological activities of representative compounds of Formula II of the invention. The compounds were tested by the microbroth dilution method as per the reference in Example 1.

[2] = tested on: Staphylococcus aureus (ATCC 29213); experiment: MIC by microbroth dilution, Staphylococcus aureus ATCC 29213; conditions: ATCC29213
Method: (§3) Shown below are the microbiological activities of representative compounds of Formula I of the invention. The compounds were tested by the microbroth dilution method (National committee for Clinical Laboratory Standards, 2011, […]-08) and the Minimum Inhibitory Concentration (MIC) was determined.

E. coli (ATCC 25922) = experiment: MIC by microbroth dilution, E. coli ATCC 25922; conditions: Escherichia coli
Method: as §1, §2

[3] = tested on: Streptococcus pneumoniae (ATCC 6301); experiment: MIC by microbroth dilution, Streptococcus pneumoniae ATCC 6301; conditions: ATCC6301
Method: as §3

[4] = tested on: Enterococcus faecalis (ATCC 29212); experiment: MIC by microbroth dilution, Enterococcus faecalis ATCC 29212; conditions: ATCC29212
Method: as §3

[5] = tested on: K. pneumoniae (ATCC 700603); experiment: MIC by microbroth dilution, K. pneumoniae ATCC 700603; conditions: Klebsiella pneumoniae, ATCC700603, Formula I compounds
Method: as §1, §2

[6] = tested on: Moraxella catarrhalis (ATCC 8176); experiment: MIC by microbroth dilution, Moraxella catarrhalis ATCC 8176; conditions: ATCC8176
Method: as §3

[7] = ATCC33591, Formula I compounds, read-out: MIC Methicillin resistant Staphylococcus aureus (ATCC 33591)
[8] = ATCC25922, Formula I compounds, read-out: MIC E. coli (ATCC 25922)
[9] = ATCC25922, Formula II compounds, read-out: Minimum Inhibitory Concentration (MIC) E. coli ATCC 25922
[10] = Formula II compounds, read-out: Minimum Inhibitory Concentration (MIC) MRSA ATCC 33591

SMILES	MIC [1, 7]	MIC [2]	MIC (E. coli (ATCC 25922); [8])	MIC [5]	MIC (E. coli (ATCC 25922); [9])	MIC [1, 10]	MIC [3]	MIC [4]	MIC [6]
COc1ccc2c(c1)c(CCN1CCC(NCc3ccc4c(c3)OCCO4)CC1)c(C#N)c(=O)n2C [VT-03-00043]	> 16 µg/mL	16 µg/mL (≈ 32.7 µM)	> 32 µg/mL						
COc1ccc2ncc(C#N)c(CCN3C4CCC3CC(NCc3cc5c(cn3)OCS5)C4)c2c1 (stereo not shown) [VT-03-00014]	4 µg/mL (≈ 8.2 µM)	2 µg/mL (≈ 4.1 µM)	32 µg/mL (≈ 65.6 µM)	> 128 µg/mL			2 µg/mL (≈ 4.1 µM)	4 µg/mL (≈ 8.2 µM)	4 µg/mL (≈ 8.2 µM)
COc1ccc2ncc(C#N)c(CCN3CCC(NCc4ccc([N+](=O)[O-])cn4)CC3)c2c1 [VT-03-00081]	1 µg/mL (≈ 2.24 µM)		> 32 µg/mL						
COc1ccc2ncc(C#N)c(CCN3[C@@H]4CC[C@H]3CC(NCc3ccc([N+](=O)[O-])s3)C4)c2c1 (stereo partly shown) [VT-03-00074]	2 µg/mL (≈ 4.19 µM)	1 µg/mL (≈ 2.09 µM)	32 µg/mL (≈ 67 µM)				2 µg/mL (≈ 4.19 µM)	8 µg/mL (≈ 16.8 µM)	2 µg/mL (≈ 4.19 µM)
COc1ccc2ncc(C#N)c(CCN3[C@@H]4CC[C@H]3CC(NCc3cc5c(c([N+](=O)[O-])c3)OCO5)C4)c2c1 (stereo partly shown) [VT-03-00070]	> 4 µg/mL	> 4 µg/mL	> 4 µg/mL						
Cc1ccc(CNC2CCN(CCn3c(=O)ccc4ccc(C#N)cc43)CC2)cc1[N+](=O)[O-] [VT-03-00065]	1 µg/mL (≈ 2.24 µM)	0.25 µg/mL (≈ 0.561 µM)	> 32 µg/mL	> 32 µg/mL			4 µg/mL (≈ 8.98 µM)	> 32 µg/mL	> 32 µg/mL
COc1ccc2ncc(=O)n(CCN3CC[C@H](NCc4ccc(C)c([N+](=O)[O-])c4)[C@@H](O)C3)c2c1 [VT-03-00135]					8 µg/mL (≈ 17.1 µM)				
Cc1ccc(CNC2CCN(CCn3c(=O)cnc4ccc(C(=O)O)cc43)CC2)cc1[N+](=O)[O-] [VT-03-00124]					2 µg/mL (≈ 4.3 µM)				
COc1ccc2ncc(C#N)c(CCN3CCC(NCc4ccc(O)c(OC)c4)CC3)c2c1 [VT-03-00046]	> 16 µg/mL	16 µg/mL (≈ 35.8 µM)	> 32 µg/mL						
COc1ccc2ncc(C#N)c(CCN3CCC(NCc4cc(C)cc([N+](=O)[O-])c4C)CC3)c2c1 [VT-03-00075]	0.12 µg/mL (≈ 0.253 µM)	0.12 µg/mL (≈ 0.253 µM)	4 µg/mL (≈ 8.45 µM)	> 16 µg/mL			0.06 µg/mL (≈ 0.127 µM)	0.5 µg/mL (≈ 1.06 µM)	0.5 µg/mL (≈ 1.06 µM)
COc1ccc2ncc(C#N)c(CCN3C4CCC3CC(NCc3cc5c(cc3F)OCCO5)C4)c2c1 (stereo not shown) [VT-03-00031]	2 µg/mL (≈ 3.98 µM)	1 µg/mL (≈ 1.99 µM)	16 µg/mL (≈ 31.8 µM)	> 32 µg/mL			1 µg/mL (≈ 1.99 µM)	2 µg/mL (≈ 3.98 µM)	4 µg/mL (≈ 7.96 µM)
CCc1ccc2ncc(=O)n(CCN3CCC(NCc4ccc(C)c(F)c4)CC3)c2c1 [VT-03-00112]					2 µg/mL (≈ 4.73 µM)	0.125 µg/mL (≈ 0.296 µM)			
COc1ccc2ncc(C#N)c(CCN3C4CCC3CC(NS(=O)(=O)c3ccccc3C)C4)c2c1 (stereo not shown) [VT-03-00017]	> 32 µg/mL	> 32 µg/mL	> 32 µg/mL				> 16 µg/mL	> 64 µg/mL	> 16 µg/mL
COc1ccc2ncc(C#N)c(CCN3C4CCC3CC(NCc3ccc5c(c3)NC(=O)CO5)C4)c2c1 (stereo not shown) [VT-03-00030]	4 µg/mL (≈ 8.04 µM)	2 µg/mL (≈ 4.02 µM)	8 µg/mL (≈ 16.1 µM)	> 32 µg/mL			4 µg/mL (≈ 8.04 µM)	4 µg/mL (≈ 8.04 µM)	1 µg/mL (≈ 2.01 µM)
COc1ccc2ncc(C#N)c(CCN3C4CCC3CC(NCc3ccc5c(c3)OCCO5)C4)c2c1 (stereo not shown) [VT-03-00021a]	0.06 µg/mL (≈ 0.124 µM)	≤ 0.03 µg/mL	16 µg/mL (≈ 33 µM)				0.12 µg/mL (≈ 0.248 µM)	2 µg/mL (≈ 4.13 µM)	2 µg/mL (≈ 4.13 µM)
COc1ccc2ncc(C#N)c(CCN3CCC(NCc4ncc([N+](=O)[O-])[nH]4)CC3)c2c1 [VT-03-00078]		> 4 µg/mL	> 32 µg/mL						
COc1ccc2ncc(C#N)c(CCN3C4CCC3CC(NC(=O)c3ccc5c(c3)OCCO5)C4)c2c1 (stereo not shown) [VT-03-00024]	2 µg/mL (≈ 4.01 µM)	1 µg/mL (≈ 2.01 µM)	> 32 µg/mL				2 µg/mL (≈ 4.01 µM)	8 µg/mL (≈ 16 µM)	8 µg/mL (≈ 16 µM)
COc1ccc2c(c1)c(CCN1CCC(NCc3ccc4c(c3)NC(=O)CO4)CC1)c(C#N)c(=O)n2C [VT-03-00042]	> 16 µg/mL	> 16 µg/mL	> 32 µg/mL						
COc1ccc2ncc(C#N)c(CCN3C4CCC3CC(NCc3ccc5c(c3)NCCS5)C4)c2c1 (stereo not shown) [VT-03-00026a]	2 µg/mL (≈ 4 µM)	1 µg/mL (≈ 2 µM)	16 µg/mL (≈ 32 µM)				2 µg/mL (≈ 4 µM)	8 µg/mL (≈ 16 µM)	4 µg/mL (≈ 8.01 µM)
COc1ccc2ncc(C#N)c(CCN3[C@@H]4CC[C@H]3CC(NCc3ccc(C)c([N+](=O)[O-])c3)C4)c2c1 (stereo partly shown) [VT-03-00069]	> 4 µg/mL	> 4 µg/mL	> 4 µg/mL						
COc1ccc2ncc(C#N)c(CCN3C4CCC3CC(NS(=O)(=O)c3ccc5ccccc5c3)C4)c2c1 (stereo not shown) [VT-03-00022]	2 µg/mL (≈ 3.8 µM)	1 µg/mL (≈ 1.9 µM)	> 64 µg/mL				2 µg/mL (≈ 3.8 µM)	4 µg/mL (≈ 7.6 µM)	4 µg/mL (≈ 7.6 µM)
COc1ccc2ncc(C#N)c(CCN3C4CCC3CC(NCc3cc5c(cn3)OCCO5)C4)c2c1 (stereo not shown) [VT-03-00027]	4 µg/mL (≈ 8.24 µM)	2 µg/mL (≈ 4.12 µM)	> 32 µg/mL				2 µg/mL (≈ 4.12 µM)	4 µg/mL (≈ 8.24 µM)	8 µg/mL (≈ 16.5 µM)

Second part, led by results:

MIC [1, 7]	MIC [2]	MIC (E. coli (ATCC 25922); [8])	MIC [5]	MIC (E. coli (ATCC 25922); [9])	MIC [1, 10]	SMILES	MIC [3]	MIC [4]	MIC [6]
4 µg/mL (≈ 9.19 µM)	2 µg/mL (≈ 4.59 µM)	> 32 µg/mL	> 16 µg/mL			COc1ccc2ncc(C#N)c(CCN3CCC(NCc4ccc([N+](=O)[O-])o4)CC3)c2c1 [VT-03-00051]	> 4 µg/mL	4 µg/mL (≈ 9.19 µM)	2 µg/mL (≈ 4.59 µM)
> 4 µg/mL	> 4 µg/mL	> 32 µg/mL				COc1ccc2ncc(C#N)c(CCN3CCC(NCc4cc(OC)c(O)c([N+](=O)[O-])c4)CC3)c2c1 [VT-03-00060]			> 32 µg/mL
0.5 µg/mL (≈ 1.08 µM)	0.25 µg/mL (≈ 0.539 µM)	16 µg/mL (≈ 34.5 µM)	> 16 µg/mL			COc1ccc2ncc(C#N)c(CCN3CCC(NCc4cc([N+](=O)[O-])ccc4F)CC3)c2c1 [VT-03-00050]	4 µg/mL (≈ 8.63 µM)	4 µg/mL (≈ 8.63 µM)	4 µg/mL (≈ 8.63 µM)
1 µg/mL (≈ 2.17 µM)	0.25 µg/mL (≈ 0.542 µM)	> 32 µg/mL	> 32 µg/mL			COc1ccc2ncc(C#N)c(CCN3CCC(NCc4cc([N+](=O)[O-])ccc4O)CC3)c2c1 [VT-03-00059]	2 µg/mL (≈ 4.33 µM)	8 µg/mL (≈ 17.3 µM)	8 µg/mL (≈ 17.3 µM)
0.5 µg/mL (≈ 1.11 µM)	0.12 µg/mL (≈ 0.266 µM)	16 µg/mL (≈ 35.4 µM)	32 µg/mL (≈ 70.9 µM)			COc1ccc2ncc(=O)n(CCN3CCC(NCc4ccc([N+](=O)[O-])c(C)c4)CC3)c2c1 [VT-03-00067]	0.25 µg/mL (≈ 0.554 µM)		2 µg/mL (≈ 4.43 µM)
				32 µg/mL (≈ 70.7 µM)	> 4 µg/mL	COc1ccc2ncc(=O)n(CCN3CCC(NCc4ccc(C)c([N+](=O)[O-])c4)CC3)c2n1 [VT-03-00125]			
0.12 µg/mL (≈ 0.239 µM)	0.06 µg/mL (≈ 0.119 µM)	4 µg/mL (≈ 7.96 µM)				COc1ccc2ncc(C#N)c(CCN3CCC(NCc4ccc(C)c([N+](=O)[O-])c4)(C(N)=O)CC3)c2c1 [VT-03-00083]			
1 µg/mL (≈ 2.21 µM)	0.25 µg/mL (≈ 0.552 µM)	32 µg/mL (≈ 70.7 µM)				COc1ccc2ncc(C#N)c(CCN3CCC(NCc4csc([N+](=O)[O-])n4)CC3)c2c1 [VT-03-00080]	2 µg/mL (≈ 4.42 µM)	4 µg/mL (≈ 8.84 µM)	> 4 µg/mL
0.5 µg/mL (≈ 1.12 µM)	0.5 µg/mL (≈ 1.12 µM)	8 µg/mL (≈ 18 µM)				COc1ccc2ncc(C#N)c(CCN3CC(CNCc4ccc(C)c([N+](=O)[O-])c4)C3)c2c1 [VT-03-00084]	0.25 µg/mL (≈ 0.561 µM)	2 µg/mL (≈ 4.49 µM)	2 µg/mL (≈ 4.49 µM)
> 4 µg/mL	> 4 µg/mL	> 4 µg/mL				COc1ccc2ncc(C#N)c(CCN3CCC(NCc4cc([N+](=O)[O-])c(C)cc4C)CC3)c2c1 [VT-03-00072]			
